Measured values: ChEMBL document CHEMBL1143028, “Preparation of cyclic 2',3'-carbamate derivatives of erythromycin macrolide antibiotics” (Bioorg Med Chem, 2007)
Activity calls are given as the source filed them. The rule behind the calls is not given here.

Legend:
[1] = test system: Escherichia coli; assay: Antibacterial activity against Escherichia coli ATCC 25922 at […]; format: functional, organism-based
[2] = test system: Staphylococcus aureus; assay: Antibacterial activity against Staphylococcus aureus ATCC 25923 at […]; format: functional, organism-based

SMILES | Activity [1] | Activity [2]
CC[C@H]1OC(=O)[C@H](C)[C@@H](O)[C@H](C)[C@@H](O[C@@H]2O[C@H](C)C[C@H]3[C@H]2OC(=O)N3C)[C@](C)(OC)C[C@@H](C)C(=O)[C@H](C)[C@@H]2OC(=O)O[C@]12C | inactive | inactive
CC[C@H]1OC(=O)[C@H](C)[C@@H](O[C@H]2C[C@@](C)(OC)[C@@H](O)[C@H](C)O2)[C@H](C)[C@@H](O[C@@H]2O[C@H](C)C[C@H]3[C@H]2OC(=O)N3C)[C@](C)(OC)C[C@@H](C)C(=O)[C@H](C)[C@@H]2OC(=O)O[C@]12C | inactive | inactive
CC[C@H]1OC(=O)[C@H](C)C(=O)[C@H](C)[C@@H](O[C@@H]2O[C@H](C)C[C@H]3[C@H]2OC(=O)N3C)[C@](C)(OC)C[C@@H](C)C(=O)[C@H](C)[C@@H]2N(c3ccc(N4CCOCC4)c(F)c3)C(=O)O[C@@]21C | inactive | inactive
CC[C@H]1OC(=O)[C@H](C)[C@@H](O[C@H]2C[C@@](C)(OC)[C@@H](O)[C@H](C)O2)[C@H](C)[C@@H](O[C@@H]2O[C@H](C)C[C@H]3[C@H]2OC(=O)N3C)[C@](C)(OC)C[C@@H](C)C(=O)/C(C)=C/[C@]1(C)O | inactive | inactive
C=CCOC(=O)O[C@H]1[C@H](C)O[C@@H](O[C@H]2[C@H](C)[C@@H](O[C@@H]3O[C@H](C)C[C@H]4[C@H]3OC(=O)N4C)[C@](C)(OC)C[C@@H](C)C(=O)[C@H](C)[C@@H]3OC(=O)O[C@]3(C)[C@@H](CC)OC(=O)[C@@H]2C)C[C@@]1(C)OC | inactive | inactive
CC[C@H]1OC(=O)[C@H](C)C(=O)[C@H](C)[C@@H](O[C@@H]2O[C@H](C)C[C@H]3[C@H]2OC(=O)N3C)[C@](C)(OC)C[C@@H](C)C(=O)[C@H](C)[C@@H]2OC(=O)O[C@]12C | inactive | inactive
C=CCOC(=O)O[C@H]1[C@H](C)[C@@H](O[C@@H]2O[C@H](C)C[C@H]3[C@H]2OC(=O)N3C)[C@](C)(OC)C[C@@H](C)C(=O)[C@H](C)[C@@H]2OC(=O)O[C@]2(C)[C@@H](CC)OC(=O)[C@@H]1C | inactive | inactive
